From BindingDB's records for patent US20240293587 (Technische University Munchen, 2024) come the findings set out here.

What is called IC50 is the concentration at which inhibition is half-maximal. Low values mean greater potency, high ones weaker potency.

Starred links: 1 amine or outer side, 2 acyl side, 3 side chain; linkers in the order of their positions; H or OH if unused. Non-standard residues stand in square brackets, D forms with d. Residues, ends and D or L forms follow the SMILES beside them. Groups on a side chain read outwards from the residue. *: point of attachment. dAla(N-(6-guanidinohexyl)) = C[C@@H](NCCCCCCNC(=N)N)C(=O)O; X1 = C[C@H](C(=O)[*:2])N(CCCCCCNC(=N)NCCCCCCN[*:3])[*:1]; Propanoyl(3-PO3H2) = O=C(CCP(=O)(O)O)*; 2Nal = N[C@@H](Cc1ccc2ccccc2c1)C(=O)O; AEEA = NCCOCCOCC(=O)O; Ahx = NCCCCCC(=O)O

The target in one experiment is C-X-C chemokine receptor type 4 (Homo sapiens, UniProt P61073). The experiment can be described thus: Competition Binding Assay. As to the method: (§1) For IC50 determination using Jurkat or Eμ-Myc1080 cells, samples containing 2×10^5 cells (or 4×10^5 cells; exact cell number used in the respective evaluations is given in the results section) in Hank's balanced salt solution (HBSS)/1% Bovine Serum Albumin (BSA) were incubated with 100.000 cpm of the respective radioligand (approx. 0.1 nM) in the presence of increasing concentrations (10−11 to 10−5 M) of the respective peptide of interest (n=3 per concentration). The total sample volume was 250 μL. After incubation at room temperature (RT) for 120 min with gentle agitation (200 mot/min), the tubes were centrifuged (5 min, 450g, Megafuge 1.0, Heraeus Thermo Scientific) and the supernatant was carefully removed. After washing twice with 400 μL of cold HBSS, the amount of cell-bound radioligand was quantified using a […]-counter.[0403]In the case of the adherent C6 glioma cells, cells were harvested using Trypsin/EDTA (0.05 % and 0.02%) in PBS one day prior to the experiment, centrifuged and resuspended with culture medium to a concentration of app. 150.000 cells/mL. The suspension was transferred into PLL-coated twenty-four-well plates (1 mL/well, Greiner, Solingen. Germany) and placed in the incubator overnight. On the day of the experiment, the culture medium was removed and the cells were washed with 250 μL of HBSS before being left to equilibrate in 200 μL of HBSS (1% BSA) at 37° C. for a minimum of 15 min before the experiment. Then, cells were incubated with 100.000 cpm of the respective radioligand (approx. 0.1 nM) in the presence of increasing concentrations (10−11 to 10−5 M) of the respective compound of interest (n=3 per concentration). The total sample volume was 250 μL. After incubation at room temperature (RT) for 120 min, the supernatant was removed and cells were washed twice with 200 μL of cold HBSS. Then, cells were lysed using 250 μL of 1 N NaOH, the lysate was transferred to vials and combined with 250 μL of HBSS used for rinsing the wells. Quantification of the amount of free and bound activity was performed in a […]-counter.
Chain of C-X-C chemokine receptor type 4 (Homo sapiens, UniProt P61073) (P61073 whole entry): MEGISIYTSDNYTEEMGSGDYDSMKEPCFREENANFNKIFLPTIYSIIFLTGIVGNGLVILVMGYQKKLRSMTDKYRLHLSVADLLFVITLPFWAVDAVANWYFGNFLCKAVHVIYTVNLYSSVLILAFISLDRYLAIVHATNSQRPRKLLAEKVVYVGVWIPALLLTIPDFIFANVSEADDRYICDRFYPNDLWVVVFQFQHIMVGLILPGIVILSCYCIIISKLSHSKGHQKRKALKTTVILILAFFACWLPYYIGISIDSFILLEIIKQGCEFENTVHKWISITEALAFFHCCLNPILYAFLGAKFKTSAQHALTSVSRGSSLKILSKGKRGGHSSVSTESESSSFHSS
`CC(=O)NCCCCCNC(=N)NCCCCCCN1C(=O)[C@@H](Cc2ccc(O)cc2)NC(=O)CNC(=O)[C@H](Cc2ccc3ccccc3c2)NC(=O)[C@H](CCCNC(=N)N)NC(=O)[C@H]1C` [US20240293587, Compound P4]: the IC50 stood at 32.1 nM.

As to `CC(=O)NCCCCCCNC(=N)NCCCCCCN1C(=O)[C@@H](Cc2ccc(O)cc2)NC(=O)CNC(=O)[C@H](Cc2ccc3ccccc3c2)NC(=O)[C@H](CCCNC(=N)N)NC(=O)[C@H]1C` [US20240293587, Compound P5], the IC50 is 9.8 nM.

Take `CC(=O)NC(=N)NCCCCCCN1C(=O)[C@@H](Cc2ccc(O)cc2)NC(=O)CNC(=O)[C@H](Cc2ccc3ccccc3c2)NC(=O)[C@H](CCCNC(=N)N)NC(=O)[C@H]1C` [US20240293587, Compound P7]: the IC50 came to 2.5 nM.

On to `CC(=O)NCCCCCC(=O)NC(=N)NCCCCCCN1C(=O)[C@@H](Cc2ccc(O)cc2)NC(=O)CNC(=O)[C@H](Cc2ccc3ccccc3c2)NC(=O)[C@H](CCCNC(=N)N)NC(=O)[C@H]1C` [US20240293587, Compound P9], for which the IC50 worked out at 78.7 nM.

For `CC(=O)NCC(=O)NC(=N)NCCCCCCN1C(=O)[C@@H](Cc2ccc(O)cc2)NC(=O)CNC(=O)[C@H](Cc2ccc3ccccc3c2)NC(=O)[C@H](CCCNC(=N)N)NC(=O)[C@H]1C` [US20240293587, Compound P8], the 50% inhibitory concentration (IC50) is 13.2 nM.

`CC(=O)NCCCCCCNC(=O)CSC[C@H]1NC(=O)[C@H](Cc2ccc3ccccc3c2)NC(=O)[C@H](CCCNC(=N)N)NC(=O)[C@@H](C)N(CCCCCCNC(=N)N)C(=O)[C@@H](Cc2ccc(O)cc2)NC1=O` [US20240293587, Compound Pc2] registered an IC50 of 57 nM.

For the compound `C[C@@H]1C(=O)N[C@@H](CCCNC(=N)N)C(=O)N[C@@H](Cc2ccc3ccccc3c2)C(=O)NCC(=O)N[C@H](Cc2ccc(O)cc2)C(=O)N1CCCCCCNC(=N)NCCCCCCNC(=O)CCCCCNC(=O)CCCCCNC(=O)CCP(=O)(O)O` [US20240293587, Compound P5k] (cyclo([2Nal]G[dY][X1]([Ahx-Ahx-Propanoyl(3-PO3H2)])R)), the 50% inhibitory concentration (IC50) was 90 nM.

In the case of `CC(=O)NCc1ccc(CNC(=O)CSC[C@H]2NC(=O)[C@H](Cc3ccc4ccccc4c3)NC(=O)[C@H](CCCNC(=N)N)NC(=O)[C@@H](C)N(CCCCCCNC(=N)N)C(=O)[C@@H](Cc3ccc(O)cc3)NC2=O)cc1` [US20240293587, Compound Pc4], the IC50 amounted to 53 nM.

`C[C@@H]1C(=O)N[C@@H](CCCNC(=N)N)C(=O)N[C@@H](Cc2ccc3ccccc3c2)C(=O)NCC(=O)N[C@H](Cc2ccc(O)cc2)C(=O)N1CCCCCCNC(=N)NCCCCCCNC(=O)COCCOCCNC(=O)COCCOCCNC(=O)CCP(=O)(O)O` [US20240293587, Compound P5m] (cyclo([2Nal]G[dY][X1]([AEEA-AEEA-Propanoyl(3-PO3H2)])R)) had a half-inhibitory concentration (IC50) of 52 nM.

As for `C[C@@H]1C(=O)N[C@@H](CCCNC(=N)N)C(=O)N[C@@H](Cc2ccc3ccccc3c2)C(=O)N[C@H](CSCC(=O)NCc2cccc(CNC(=O)CN3CCN(CC(=O)O)CCN(CC(=O)O)CCN(CC(=O)O)CC3)c2)C(=O)N[C@H](Cc2ccc(O)cc2)C(=O)N1CCCCCCNC(=N)N` [US20240293587, Compound Pc5a], the IC50 amounted to 78 nM.

The compound `CC(=O)NCCNC(=N)NCCCCCCN1C(=O)[C@@H](Cc2ccc(O)cc2)NC(=O)CNC(=O)[C@H](Cc2ccc3ccccc3c2)NC(=O)[C@H](CCCNC(=N)N)NC(=O)[C@H]1C` [US20240293587, Compound P1] returned a 50% inhibitory concentration (IC50) of 3.1 nM.

For `CC(=O)NCCCCCCSC[C@H]1NC(=O)[C@H](Cc2ccc3ccccc3c2)NC(=O)[C@H](CCCNC(=N)N)NC(=O)[C@@H](C)N(CCCCCCNC(=N)N)C(=O)[C@@H](Cc2ccc(O)cc2)NC1=O` [US20240293587, Compound Pc3], the half-inhibitory concentration (IC50) was over 400 nM.

`CC(=O)N[C@@H](CCCCNC(=O)CSC[C@H]1NC(=O)[C@H](Cc2ccc3ccccc3c2)NC(=O)[C@H](CCCNC(=N)N)NC(=O)[C@@H](C)N(CCCCCCNC(=N)N)C(=O)[C@@H](Cc2ccc(O)cc2)NC1=O)C(N)=O` [US20240293587, Compound Pc1]: the half-maximal inhibitory concentration (IC50) came out at 61 nM.

Compound `C[C@@H]1C(=O)N[C@@H](CCCNC(=N)N)C(=O)N[C@@H](Cc2ccc3ccccc3c2)C(=O)NCC(=O)N[C@H](Cc2ccc(O)cc2)C(=O)N1CCCCCCNC(=N)N` [US20240293587, Compound R] (cyclo([dY][dAla(N-(6-guanidinohexyl))]R[2Nal]G)) registered an IC50 of 0.8 nM.

`CC(=O)NCCCNC(=N)NCCCCCCN1C(=O)[C@@H](Cc2ccc(O)cc2)NC(=O)CNC(=O)[C@H](Cc2ccc3ccccc3c2)NC(=O)[C@H](CCCNC(=N)N)NC(=O)[C@H]1C` [US20240293587, Compound P2] came in with an IC50 of 1.7 nM.

In turn, `C#CCCCCNC(=N)NCCCCCCN1C(=O)[C@@H](Cc2ccc(O)cc2)NC(=O)CNC(=O)[C@H](Cc2ccc3ccccc3c2)NC(=O)[C@H](CCCNC(=N)N)NC(=O)[C@H]1C` [US20240293587, Compound P6] showed an IC50 of 3.2 nM.

Compound `CC(=O)NCc1cccc(CNC(=O)CSC[C@H]2NC(=O)[C@H](Cc3ccc4ccccc4c3)NC(=O)[C@H](CCCNC(=N)N)NC(=O)[C@@H](C)N(CCCCCCNC(=N)N)C(=O)[C@@H](Cc3ccc(O)cc3)NC2=O)c1` [US20240293587, Compound Pc5] yielded an IC50 of 14 nM.

For the compound `C#CCCC(=O)NC(=N)NCCCCCCN1C(=O)[C@@H](Cc2ccc(O)cc2)NC(=O)CNC(=O)[C@H](Cc2ccc3ccccc3c2)NC(=O)[C@H](CCCNC(=N)N)NC(=O)[C@H]1C` [US20240293587, Compound P10], the IC50 was 2 nM.

A further experiment deals with C-X-C chemokine receptor type 4 (Mus musculus, UniProt P70658). Description: Competition Binding Assay. As to the method: as §1
Chain of C-X-C chemokine receptor type 4 (Mus musculus, UniProt P70658) (P70658 whole entry): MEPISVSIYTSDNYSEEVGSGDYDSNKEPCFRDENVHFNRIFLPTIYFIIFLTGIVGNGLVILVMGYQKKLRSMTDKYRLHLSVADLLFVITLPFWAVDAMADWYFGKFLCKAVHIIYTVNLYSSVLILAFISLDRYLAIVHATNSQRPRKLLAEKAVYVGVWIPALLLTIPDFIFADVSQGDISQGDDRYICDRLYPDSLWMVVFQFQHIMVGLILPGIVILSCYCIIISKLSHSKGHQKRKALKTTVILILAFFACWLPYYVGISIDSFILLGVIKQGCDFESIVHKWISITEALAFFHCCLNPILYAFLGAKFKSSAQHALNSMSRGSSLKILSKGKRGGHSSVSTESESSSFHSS
`CC(=O)NC(=N)NCCCCCCN1C(=O)[C@@H](Cc2ccc(O)cc2)NC(=O)CNC(=O)[C@H](Cc2ccc3ccccc3c2)NC(=O)[C@H](CCCNC(=N)N)NC(=O)[C@H]1C` [US20240293587, Compound P7] gave a half-maximal inhibitory concentration (IC50) of 1.6 nM.

The compound `C#CCCCCNC(=N)NCCCCCCN1C(=O)[C@@H](Cc2ccc(O)cc2)NC(=O)CNC(=O)[C@H](Cc2ccc3ccccc3c2)NC(=O)[C@H](CCCNC(=N)N)NC(=O)[C@H]1C` [US20240293587, Compound P6] showed a 50% inhibitory concentration (IC50) of 6.2 nM.

`C#CCCC(=O)NC(=N)NCCCCCCN1C(=O)[C@@H](Cc2ccc(O)cc2)NC(=O)CNC(=O)[C@H](Cc2ccc3ccccc3c2)NC(=O)[C@H](CCCNC(=N)N)NC(=O)[C@H]1C` [US20240293587, Compound P10]: the IC50 is 5.5 nM.
